According to patent US8377884B2, “Variants of C-type natriuretic peptides” (Biomarin Pharmaceutical Inc., priority 2007, dated 2013):
Like-named read-outs stand apart in the source and are kept apart here. Bridge positions count the residues as written; N and C are the ends. Ends that are not written are not given here. Peptide text beside a SMILES is read from it.

Key:
[1] = target: neutral endopeptidase (NEP) (Homo sapiens, UniProt P08473); assay: in vitro; conditions: human, pH 7
Procedure: To determine the effects of amino acid substitutions, amino acid extensions, backbone modifications, side chain modifications and PEGylation on the susceptibility of CNP variants to neutral endopeptidase (NEP) cleavage, peptide cleavage assays were carried out using an in vitro assay that monitored disappearance of the non-cleaved CNP variant.
Recombinant human NEP (1 ug/mL final concentration) was added to 100 uM CNP variant diluted in 0.1 M Tris, pH 7. The reaction mixture was incubated at 37° C. for various periods of time, and the reaction was quenched with EDTA (10 mM final) followed by heat denaturation. The reaction mixture was reduced and then the reaction products were analyzed using HPLC and mass spectroscopy. The half-life of the CNP variant was calculated based on the disappearance of intact CNP variant over time.

[2] = target: T1, NPR-B (Mus musculus, UniProt Q6VVW5); assay: Stimulation of cGMP production in NIH3T3 cells; assay type: cell-based, Murine; conditions: for cGMP response relative to 1 uM CNP22 (%) at 0.01 µM: read-out: cGMP Response rel. to 1 uM CNP22, 10 nM; for cGMP response relative to 1 uM CNP22 (%) at 1 µM: read-out: cGMP Response rel. to 1 uM CNP22, 1 uM
T1 construct: Murine NIH3T3 cells express endogenously the CNP signaling receptor, NPR-B; endogenous in cells; host or cells: NIH3T3 (murine fibroblasts)
T1 sequence (Q6VVW5 17-1047): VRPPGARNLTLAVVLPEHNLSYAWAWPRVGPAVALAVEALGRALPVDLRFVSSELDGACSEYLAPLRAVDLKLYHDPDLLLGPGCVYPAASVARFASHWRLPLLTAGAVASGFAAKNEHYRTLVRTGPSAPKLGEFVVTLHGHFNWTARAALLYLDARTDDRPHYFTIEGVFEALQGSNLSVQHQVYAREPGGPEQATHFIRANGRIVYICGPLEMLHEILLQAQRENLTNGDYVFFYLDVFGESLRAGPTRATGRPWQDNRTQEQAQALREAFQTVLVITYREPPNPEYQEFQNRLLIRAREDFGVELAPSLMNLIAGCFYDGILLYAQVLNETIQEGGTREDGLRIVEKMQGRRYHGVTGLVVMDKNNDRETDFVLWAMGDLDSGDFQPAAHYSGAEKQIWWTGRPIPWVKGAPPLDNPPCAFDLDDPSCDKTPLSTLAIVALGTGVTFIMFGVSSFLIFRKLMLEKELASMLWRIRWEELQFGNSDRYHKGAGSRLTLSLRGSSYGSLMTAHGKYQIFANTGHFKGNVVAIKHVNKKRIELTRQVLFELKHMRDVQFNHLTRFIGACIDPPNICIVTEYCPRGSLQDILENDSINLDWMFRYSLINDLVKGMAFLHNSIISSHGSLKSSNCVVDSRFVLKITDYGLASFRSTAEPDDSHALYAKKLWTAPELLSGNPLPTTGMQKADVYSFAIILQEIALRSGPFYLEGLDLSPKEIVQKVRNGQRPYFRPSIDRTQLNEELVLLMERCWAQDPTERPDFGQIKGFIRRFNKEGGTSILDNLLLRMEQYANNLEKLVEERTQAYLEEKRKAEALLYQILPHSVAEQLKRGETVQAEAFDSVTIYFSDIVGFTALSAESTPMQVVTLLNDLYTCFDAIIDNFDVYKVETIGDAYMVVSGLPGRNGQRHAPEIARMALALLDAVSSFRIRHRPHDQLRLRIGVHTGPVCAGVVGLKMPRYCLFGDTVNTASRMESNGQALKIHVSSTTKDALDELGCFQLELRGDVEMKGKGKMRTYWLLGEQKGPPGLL

[3] = NIH3T3 cells, 10 nM natriuretic peptide, normalized to cell number and cGMP production with 1 uM wtCNP22
[4] = NIH3T3 cells, 1 uM natriuretic peptide, normalized to cell number and cGMP production with 1 uM wtCNP22

neutral endopeptidase (NEP), sequence (P08473 whole entry): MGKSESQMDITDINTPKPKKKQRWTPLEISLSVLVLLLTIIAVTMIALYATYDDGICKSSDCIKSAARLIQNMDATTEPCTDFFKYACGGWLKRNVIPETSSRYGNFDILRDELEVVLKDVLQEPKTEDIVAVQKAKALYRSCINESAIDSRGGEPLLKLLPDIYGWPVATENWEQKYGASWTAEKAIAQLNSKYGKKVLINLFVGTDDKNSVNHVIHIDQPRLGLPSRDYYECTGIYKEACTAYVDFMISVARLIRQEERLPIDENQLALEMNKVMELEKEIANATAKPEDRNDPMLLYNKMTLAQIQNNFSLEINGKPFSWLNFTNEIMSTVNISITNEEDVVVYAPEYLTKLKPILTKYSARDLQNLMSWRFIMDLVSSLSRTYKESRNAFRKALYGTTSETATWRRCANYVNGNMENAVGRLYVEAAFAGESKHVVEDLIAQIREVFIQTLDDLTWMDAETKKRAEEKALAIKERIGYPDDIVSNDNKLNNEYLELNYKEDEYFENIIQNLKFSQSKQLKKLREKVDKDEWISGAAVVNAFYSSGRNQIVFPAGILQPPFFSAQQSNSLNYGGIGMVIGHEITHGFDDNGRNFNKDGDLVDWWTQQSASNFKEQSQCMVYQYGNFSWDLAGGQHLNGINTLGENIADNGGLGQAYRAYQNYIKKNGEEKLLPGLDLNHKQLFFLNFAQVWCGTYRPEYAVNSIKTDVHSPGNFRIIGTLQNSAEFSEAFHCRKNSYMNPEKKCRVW

Row | Compound | half-life at 100 uM [1] [h] | cGMP Response rel. to 1 uM CNP22, 10 nM [2, 3] | cGMP Response rel. to 1 uM CNP22, 1 uM [2, 4] | cGMP response relative to 1 uM CNP22 (%) at 0.01 µM [2, 3] [%] | cGMP response relative to 1 uM CNP22 (%) at 1 µM [2, 4] [%] | cGMP response relative to 1 uM CNP22 (%) at 0.01 µM ([2]; NIH3T3, […]) [%] | cGMP response relative to 1 uM CNP22 (%) at 1 µM ([2]; NIH3T3, […]) [%]
1 | CC[C@H](C)[C@@H]1NC(=O)[C@H](CCCNC(=N)N)NC(=O)[C@H](CC(=O)O)NC(=O)[C@H](CC(C)C)NC(=O)[C@H](CCCCN)NC(=O)[C@H](CC(C)C)NC(=O)CNC(=O)[C@H](Cc2ccccc2)NC(=O)[C@@H](NC(=O)CNC(=O)[C@H](CCCCN)NC(=O)[C@H](CO)NC(=O)[C@H](CC(C)C)NC(=O)CNC(=O)[C@H](CCCCN)NC(=O)[C@H](CCCCN)NC(=O)[C@H](CC(N)=O)NC(=O)[C@H](C)NC(=O)CNC(=O)[C@H](CCCCN)NC(=O)[C@H](Cc2ccc(O)cc2)NC(=O)[C@H](CCCCN)NC(=O)[C@H](CCCNC(=N)N)NC(=O)[C@H](C)NC(=O)[C@H](CC(N)=O)NC(=O)[C@@H]2CCCN2C(=O)[C@H](Cc2c[nH]cn2)NC(=O)[C@H](CCC(=O)O)NC(=O)[C@@H](N)CCC(N)=O)CSSC[C@@H](C(=O)O)NC(=O)CNC(=O)[C@H](CC(C)C)NC(=O)CNC(=O)[C@H](CO)NC(=O)[C@H](CCSC)NC(=O)[C@H](CO)NC(=O)CNC1=O [BL] | > 2.67 | 43 ± 15 | 97 ± 27 |  |  |  | 
2 | CC[C@H](C)[C@@H]1NC(=O)[C@H](CCCNC(=N)N)NC(=O)[C@H](CC(=O)O)NC(=O)[C@H](CC(C)C)NC(=O)[C@H](CCCCN)NC(=O)[C@H](CC(C)C)N(C)C(=O)CNC(=O)[C@H](Cc2ccccc2)NC(=O)[C@@H](NC(=O)CNC(=O)[C@H](CCCCN)NC(=O)[C@H](CO)NC(=O)[C@H](CC(C)C)NC(=O)CN)CSSC[C@@H](C(=O)O)NC(=O)CNC(=O)[C@H](CC(C)C)N(C)C(=O)CNC(=O)[C@H](CO)NC(=O)[C@H](CCSC)NC(=O)[C@H](CO)NC(=O)CNC1=O [K] | 1.33 |  |  |  |  | 1 | 1
3 | CC[C@H](C)[C@@H]1NC(=O)[C@H](CCCNC(=N)N)NC(=O)[C@H](CC(=O)O)NC(=O)[C@H](CC(C)C)NC(=O)[C@H](CCCCN)NC(=O)[C@H](CC(C)C)NC(=O)CNC(=O)[C@H](Cc2ccccc2)NC(=O)[C@@H](NC(=O)CNC(=O)[C@H](CCCCN)NC(=O)[C@H](CO)NC(=O)[C@H](CC(C)C)NC(=O)CNC(=O)CCCC(=O)NCCOCCOCCOCCOCCC(=O)NC(COCCC(=O)NCCOCCOCCOCCOCCOCCOCCOCCOCCOCCOCCOCCOC)(COCCC(=O)NCCOCCOCCOCCOCCOCCOCCOCCOCCOCCOCCOCCOC)COCCC(=O)NCCOCCOCCOCCOCCOCCOCCOCCOCCOCCOCCOCCOC)CSSC[C@@H](C(=O)O)NC(=O)CNC(=O)[C@H](CC(C)C)NC(=O)CNC(=O)[C@H](CO)NC(=O)[C@H](CCSC)NC(=O)[C@H](CO)NC(=O)CNC1=O [PEO4-(PEO12)3 (branched)-CNP22] | > 2.67 |  |  | 17 ± 1 | 52 ± 6 |  | 
4 | CC[C@H](C)[C@@H]1NC(=O)[C@H](CCCNC(=N)N)NC(=O)[C@H](CC(=O)O)NC(=O)[C@H](CC(C)C)NC(=O)[C@H](CCCCN)NC(=O)[C@H](CC(C)C)NC(=O)CNC(=O)[C@H](Cc2ccccc2)NC(=O)[C@@H](NC(=O)CNC(=O)[C@H](CCCCN)NC(=O)[C@H](CO)NC(=O)[C@H](CC(C)C)NC(=O)CNC(=O)CCOCCOCCOCCOCCOCCOCCOCCOCCOCCOCCOCCOC)CSSC[C@@H](C(=O)O)NC(=O)CNC(=O)[C@H](CC(C)C)NC(=O)CNC(=O)[C@H](CO)NC(=O)[C@H](CCSC)NC(=O)[C@H](CO)NC(=O)CNC1=O [PEO12-CNP22] | ≥ 2.67 |  |  | 12 ± 7 | 57 ± 18 |  | 

Further lines, with some results ahead:

Row | half-life at 100 uM [1] [h] | cGMP Response rel. to 1 uM CNP22, 10 nM [2, 3] | cGMP Response rel. to 1 uM CNP22, 1 uM [2, 4] | cGMP response relative to 1 uM CNP22 (%) at 0.01 µM [2, 3] [%] | cGMP response relative to 1 uM CNP22 (%) at 1 µM [2, 4] [%] | Compound | cGMP response relative to 1 uM CNP22 (%) at 0.01 µM ([2]; NIH3T3, […]) [%] | cGMP response relative to 1 uM CNP22 (%) at 1 µM ([2]; NIH3T3, […]) [%]
5 | > 2.67 |  |  | 34 | 101 | CC[C@H](C)[C@@H]1NC(=O)[C@H](CCCNC(=N)N)NC(=O)[C@H](CC(=O)O)NC(=O)[C@H](CC(C)C)NC(=O)[C@H](CCCCN)NC(=O)[C@H](CC(C)C)NC(=O)CNC(=O)[C@H](Cc2ccccc2)NC(=O)[C@@H](NC(=O)CNC(=O)[C@H](CCCCN)NC(=O)[C@H](CO)NC(=O)[C@H](CC(C)C)NC(=O)CNC(=O)[C@H](CCCNC(=N)N)NC(=O)[C@H](C)NC(=O)[C@H](Cc2c[nH]c3ccccc23)NC(=O)[C@H](C)NC(=O)[C@H](C)NC(=O)[C@H](CCCNC(=N)N)NC(=O)[C@H](CO)NC(=O)[C@H](CCCCN)NC(=O)[C@@H](NC(=O)[C@H](CC(=O)O)NC(=O)[C@@H](NC(=O)[C@H](CCCNC(=N)N)NC(=O)[C@H](CC(C)C)NC(=O)[C@@H](N)CC(=O)O)C(C)C)[C@@H](C)O)CSSC[C@@H](C(=O)O)NC(=O)CNC(=O)[C@H](CC(C)C)NC(=O)CNC(=O)[C@H](CO)NC(=O)[C@H](CCSC)NC(=O)[C@H](CO)NC(=O)CNC1=O [CC] (H-DLRVDTKSRAAWARGLSKGCFGLKLDRIGSMSGLGC-OH; disulfide 20-36 (inferred); N-terminus and C-terminus assumed) |  | 
6 | 1.58 |  |  | 27 ± 1 | 88 ± 1 | CC[C@H](C)[C@@H]1NC(=O)[C@H](CCCNC(=N)N)NC(=O)[C@H](CC(=O)O)NC(=O)[C@H](CC(C)C)NC(=O)[C@H](CCCCN)NC(=O)[C@H](CC(C)C)NC(=O)CNC(=O)[C@H](Cc2ccccc2)NC(=O)[C@@H](NC(=O)CNC(=O)[C@H](CCCNC(=N)N)NC(=O)[C@H](CO)NC(=O)[C@H](CC(C)C)NC(=O)CNC(=O)[C@H](CO)NC(=O)[C@H](CO)NC(=O)[C@H](CC(N)=O)NC(=O)[C@H](C)NC(=O)CN)CSSC[C@@H](C(=O)O)NC(=O)CNC(=O)[C@H](CC(C)C)NC(=O)CNC(=O)[C@H](CO)NC(=O)[C@H](CCSC)NC(=O)[C@H](CO)NC(=O)CNC1=O [CG] (H-GANSSGLSRGCFGLKLDRIGSMSGLGC-OH; disulfide 11-27 (inferred); N-terminus and C-terminus assumed) |  | 
7 | > 2.67 |  |  | 19 | 61 | CC[C@H](C)[C@@H]1NC(=O)[C@H](CCCNC(=N)N)NC(=O)[C@H](CC(=O)O)NC(=O)[C@H](CC(C)C)NC(=O)[C@H](CCCCN)NC(=O)[C@H](CC(C)C)NC(=O)CNC(=O)[C@H](Cc2ccccc2)NC(=O)[C@@H](NC(=O)CNC(=O)[C@H](CCCCN)NC(=O)[C@H](CO)NC(=O)[C@H](CC(C)C)NC(=O)CNC(=O)[C@H](CCCCN)NC(=O)[C@@H]2CCCN2C(=O)[C@H](CC(N)=O)NC(=O)[C@H](C)NC(=O)CNC(=O)[C@H](CCCCN)NC(=O)[C@H](Cc2ccc(O)cc2)NC(=O)[C@H](CCCCN)NC(=O)[C@H](CCCNC(=N)N)NC(=O)[C@H](C)NC(=O)[C@H](CC(N)=O)NC(=O)[C@@H]2CCCN2C(=O)[C@H](Cc2c[nH]cn2)NC(=O)[C@H](CCC(=O)O)NC(=O)[C@H](CCC(N)=O)NC(=O)CN)CSSC[C@@H](C(=O)O)NC(=O)CNC(=O)[C@H](CC(C)C)NC(=O)CNC(=O)[C@H](CO)NC(=O)[C@H](CCSC)NC(=O)[C@H](CO)NC(=O)CNC1=O [CS] (H-GQEHPNARKYKGANPKGLSKGCFGLKLDRIGSMSGLGC-OH; disulfide 22-38 (inferred); N-terminus and C-terminus assumed) |  | 
8 | > 2.67 |  |  | 61 | 101 | DLRVDTKSRAAWARLLQEHPNARKYKGANKKGLSKGCFGLKLDRIGSMSGLGC (disulfide 37-53) [BM] |  | 
